Tests used:
[1] = biological target: recombinant soluble guanylate cyclase (sGC), haem-free (Rattus norvegicus (Rat), UniProt P20595); test: Stimulation of recombinant soluble guanylate cyclase (sGC) in vitro, haem-free enzyme; type: biochemical; conditions: n = 5
Protocol: Investigations on the stimulation of recombinant soluble guanylate cyclase (sGC) by the compounds according to the invention with and without sodium nitroprusside, and with and without the haem-dependent sGC inhibitor 1H-1,2,4-oxadiazolo[4,3a]quinoxalin-1-one (ODQ), are carried out by the method described in detail in the following reference: M. Hoenicka, E. M. Becker, H. Apeler, T. Sirichoke. H. Schroeder, R. Gerzer and J.-P. Stasch, “Purified soluble guanylyl cyclase expressed in a baculovirus/Sf9 system: Stimulation by YC-1, nitric oxide, and […]”, J. Mol. Med. 77 (1999), 14-23. The haem-free guanylate cyclase is obtained by adding Tween 20 to the sample buffer (0.5% in the final concentration).
(§1) The activation of sGC by a test substance is reported as x-fold stimulation of the basal activity.

[2] = biological target: recombinant soluble guanylate cyclase (sGC), haem-containing (Rattus norvegicus (Rat), UniProt P20595); test: Stimulation of recombinant soluble guanylate cyclase (sGC) in vitro, haem-containing enzyme; type: biochemical; conditions: for Stimulation (x-fold) of haem-containing sGC, basal: n = 5
From the text: Hoenicka, E. M. Becker, H. Apeler, T. Sirichoke. H. Schroeder, R. Gerzer and J.-P. Stasch, “Purified soluble guanylyl cyclase expressed in a baculovirus/Sf9 system: Stimulation by YC-1, nitric oxide, and […]”, J. Mol. Med. 77 (1999), 14-23. The haem-free guanylate cyclase is obtained by adding Tween 20 to the sample buffer (0.5% in the final concentration).
as §1

[3] = test system: recombinant guanylate cyclase reporter cell line (CHO reporter cell); test: Action at a recombinant guanylate cyclase reporter cell line; type: cell-based; conditions: CHO reporter cell in vitro; read-out: MEC (minimum effective concentration), sGC-activating activity in the CHO reporter cell
Protocol: The cellular action of the compounds according to the invention is determined at a recombinant guanylate cyclase reporter cell line, as described in F. Wunder et al., Anal. Biochem. 339, 104-112 (2005).

saphenous artery rings = test: Vasorelaxant effect in vitro (phenylephrine-contracted saphenous artery rings); type: cell-based; conditions: Oryctolagus cuniculus; rabbit saphenous artery rings, phenylephrine-induced contraction
Protocol: Rabbits are anaesthetized and sacrificed by intravenous injection of thiopental sodium (about 50 mg/kg) and exsanguinated. The saphenous artery is removed and divided into rings 3 mm wide. The rings are mounted singly on in each case a pair of triangular hooks open at the end and made of 0.3 mm-thick special wire (Remanium®). Each ring is placed under an initial tension in 5 ml organ baths with Krebs-Henseleit solution which is at 37° C., is gassed with carbogen and has the following composition: NaCl 119 mM; KCl 4.8 mM; CaCl2×2 H2O 1 mM; MgSO4×7 H2O 1.4 mM; KH2PO4 1.2 mM; NaHCO3 25 mM; glucose 10 mM; bovine serum albumin 0.001%. The force of contraction is detected with Statham UC2 cells, amplified and digitized via A/D converters (DAS-1802 HC, Keithley Instruments, Munich) and recorded in parallel on chart recorders. Contractions are induced by addition of phenylephrine.
After several (generally 4) control cycles, the substance to be investigated is added in each further run in increasing dosage, and the level of the contraction achieved under the influence of the test substance is compared with the level of the contraction reached in the last preceding run. The concentration necessary to reduce the contraction reached in the preceding control by 50% is calculated from this (IC50). The standard application volume is 5 μl. The proportion of DMSO in the bath solution corresponds to 0.1%.

[4] = biological target: soluble guanylate cyclase (sGC) (Rattus norvegicus (Rat), UniProt P20595); test: Stimulation of sGC enzyme activity (PPi detection, luciferase); type: biochemical; conditions: sGC enzyme in vitro
Protocol: Soluble guanylate cyclase (sGC) converts on stimulation GTP into cGMP and pyrophosphate (PPi). PPi is detected with the aid of the assay described below. The signal produced in the assay increases as the reaction progresses and serves as a measure of the sGC enzyme activity under the given stimulation.
To carry out the assay, 29 μl of enzyme solution [0-10 nM soluble guanylate cyclase (prepared according to Hönicka et al, J. Mol. Med. 77, 14-23 (1999)) in 50 mM TEA, 2 mM MgC2, 0.1% BSA (fraction V), 0.005% Brij®, pH 7.5] are initially introduced into a microplate, and 1 μl of the substance to be tested (as a serially diluted solution in DMSO) is added. The mixture is incubated at room temperature for 10 min. Then 20 μl of detection mix [1.2 nM Firefly Luciferase (Photinus pyralis luciferase, Promega), 29 μM dehydroluciferin (prepared according to Bitler & McElroy, Arch. Biochem. Biophys. 72, 358 (1957)), 122 μM luciferin (Promega), 153 μM ATP (Sigma) and 0.4 mM DTT (Sigma) in 50 mM TEA, 2 mM MgCl2, 0.1% BSA (fraction V), 0.005% Brij®, pH 7.5] are added. The enzyme reaction is started by adding 20 μl of substrate solution [1.25 mM guanosine 5′-triphosphate (Sigma) in 50 mM TEA, 2 mM MgC2, 0.1% BSA (fraction V), 0.005% Brij®, pH 7.5] and measured continuously in a luminometer. The extent of the stimulation by the substance to be tested can be determined relative to the signal of the unstimulated reaction.
The activation of haem-free guanylate cyclase is examined by addition of 25 μM of 1H-1,2,4-oxadiazolo[4,3-a]quinoxalin-1-one (ODQ) to the enzyme solution and subsequent incubation for 30 minutes and compared to the stimulation of the native enzyme.

recombinant soluble guanylate cyclase (sGC), haem-free, sequence (P20595 whole entry): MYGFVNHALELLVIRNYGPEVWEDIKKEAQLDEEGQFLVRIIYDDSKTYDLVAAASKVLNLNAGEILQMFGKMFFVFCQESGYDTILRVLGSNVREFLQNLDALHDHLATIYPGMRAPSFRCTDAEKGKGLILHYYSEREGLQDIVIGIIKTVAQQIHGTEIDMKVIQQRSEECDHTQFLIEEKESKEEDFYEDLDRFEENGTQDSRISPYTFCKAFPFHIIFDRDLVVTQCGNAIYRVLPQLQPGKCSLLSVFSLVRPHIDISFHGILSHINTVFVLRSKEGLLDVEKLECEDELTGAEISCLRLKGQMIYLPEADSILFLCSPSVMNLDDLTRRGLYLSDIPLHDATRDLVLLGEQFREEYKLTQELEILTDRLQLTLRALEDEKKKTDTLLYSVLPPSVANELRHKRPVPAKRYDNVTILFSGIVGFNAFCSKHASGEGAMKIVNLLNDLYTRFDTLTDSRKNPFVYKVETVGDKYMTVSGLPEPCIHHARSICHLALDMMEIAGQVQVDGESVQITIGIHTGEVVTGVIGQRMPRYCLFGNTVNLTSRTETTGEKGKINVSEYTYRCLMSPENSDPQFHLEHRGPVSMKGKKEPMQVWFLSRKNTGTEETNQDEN
recombinant soluble guanylate cyclase (sGC), haem-free, sequence (P19686 whole entry partner): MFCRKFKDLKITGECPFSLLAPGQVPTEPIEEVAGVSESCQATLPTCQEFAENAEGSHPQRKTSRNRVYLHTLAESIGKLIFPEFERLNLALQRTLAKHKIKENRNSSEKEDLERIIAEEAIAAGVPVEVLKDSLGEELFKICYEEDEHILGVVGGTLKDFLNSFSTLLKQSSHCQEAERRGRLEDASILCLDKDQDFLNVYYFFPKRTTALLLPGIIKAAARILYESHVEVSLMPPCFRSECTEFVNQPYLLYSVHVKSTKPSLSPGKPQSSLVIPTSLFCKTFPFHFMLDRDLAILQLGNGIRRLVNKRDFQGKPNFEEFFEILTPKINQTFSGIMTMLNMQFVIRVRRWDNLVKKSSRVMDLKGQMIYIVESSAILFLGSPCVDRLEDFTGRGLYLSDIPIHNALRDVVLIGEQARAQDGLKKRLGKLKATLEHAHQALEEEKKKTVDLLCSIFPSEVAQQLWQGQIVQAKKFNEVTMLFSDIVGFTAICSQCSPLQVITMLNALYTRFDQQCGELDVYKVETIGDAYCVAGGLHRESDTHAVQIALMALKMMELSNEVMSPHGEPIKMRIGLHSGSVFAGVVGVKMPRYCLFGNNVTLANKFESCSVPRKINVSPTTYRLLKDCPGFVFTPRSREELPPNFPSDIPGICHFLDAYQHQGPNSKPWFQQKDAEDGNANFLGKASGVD
recombinant soluble guanylate cyclase (sGC), haem-containing, sequence (P20595 whole entry): as the sequence (P20595 whole entry) above
recombinant soluble guanylate cyclase (sGC), haem-containing, sequence (P19686 whole entry partner): as the sequence (P19686 whole entry partner) above
soluble guanylate cyclase (sGC), sequence (P20595 whole entry): as the sequence (P20595 whole entry) above
soluble guanylate cyclase (sGC), sequence (P19686 whole entry partner): as the sequence (P19686 whole entry partner) above

Stimulation (x-fold) of haem-free sGC, basal ([1]; 0.01 μM Example 22): 1.2 ± 0.1 x-fold
Stimulation (x-fold) of haem-free sGC, basal ([1]; 0.1 μM Example 22): 1.6 ± 0.5 x-fold
Stimulation (x-fold) of haem-free sGC, basal ([1]; 1.0 μM Example 22): 4.9 ± 1.5 x-fold
Stimulation (x-fold) of haem-free sGC, basal ([1]; 10 μM Example 22): 14.2 ± 2.0 x-fold
Stimulation (x-fold) of haem-containing sGC, +0.01 μM DEA/NO ([2]; 0.01 μM Example 22 + 0.01 μM DEA/NO): 4.4 ± 1.3 x-fold
Stimulation (x-fold) of haem-containing sGC, +10 μM ODQ ([2]; 0.01 μM Example 22 + 10 μM ODQ): 5.7 ± 1.6 x-fold
Stimulation (x-fold) of haem-containing sGC, basal ([2]; 0.01 μM Example 22): 1.6 ± 0.3 x-fold
Stimulation (x-fold) of haem-containing sGC, +0.01 μM DEA/NO ([2]; 0.1 μM Example 22 + 0.01 μM DEA/NO): 3.4 ± 0.9 x-fold
Stimulation (x-fold) of haem-containing sGC, +10 μM ODQ ([2]; 0.1 μM Example 22 + 10 μM ODQ): 6.1 ± 1.7 x-fold
Stimulation (x-fold) of haem-containing sGC, basal ([2]; 0.1 μM Example 22): 1.6 ± 0.5 x-fold
Stimulation (x-fold) of haem-containing sGC, +0.01 μM DEA/NO ([2]; 1.0 μM Example 22 + 0.01 μM DEA/NO): 4.4 ± 1.4 x-fold
Stimulation (x-fold) of haem-containing sGC, +10 μM ODQ ([2]; 1.0 μM Example 22 + 10 μM ODQ): 8.4 ± 2.2 x-fold
Stimulation (x-fold) of haem-containing sGC, basal ([2]; 1.0 μM Example 22): 2.4 ± 1.0 x-fold
Stimulation (x-fold) of haem-containing sGC, +0.01 μM DEA/NO ([2]; 10 μM Example 22 + 0.01 μM DEA/NO): 7.8 ± 2.5 x-fold
Stimulation (x-fold) of haem-containing sGC, +10 μM ODQ ([2]; 10 μM Example 22 + 10 μM ODQ): 18.3 ± 5.4 x-fold
Stimulation (x-fold) of haem-containing sGC, basal ([2]; 10 μM Example 22): 4.9 ± 1.2 x-fold
Combination with the NO donor DEA/NO: synergistic effect on sGC stimulation ([2]; haem-containing sGC, combination with DEA/NO): no synergistic effect
Effect of the haem-dependent sGC inhibitor ODQ on the sGC activation ([2]; haem-containing sGC, with ODQ): not blocked
IC50 (saphenous artery rings): 137 nM
MEC (minimum effective concentration), activating action at the sGC enzyme [4]: 2.4 nM
EC50 ([4]; read-out: EC50 (concentration at 50% of maximum efficacy), activating action at the sGC enzyme): 68 nM
Structure (SMILES): C[C@H]([C@H](C(=O)Nc1cc(C(CC(=O)O)C2CC2)ccc1Cl)c1ccc(Cl)cc1)C(F)(F)F (single isomer, unassigned; (+)) [Example 22]
minimal effective concentration [3]: 0.0018 µM
